Experimental data published in patent US20210246109A1, “POTENT AND SELECTIVE INHIBITORS OF CYTOCHROME P450” (University of Kentucky Research Foundation, priority 2020, published 2021).
Several values for one entry are separate records, joined by “and”; a condition that tells them apart may be missing. Equal entries are not always repeated. Where two headings read alike, the source gives them in different places.

Assays:
[1] = system: MCF7 tumor spheroids; format: cell-based; conditions: 547 0.5 μM with cisplatin 100 μM; CYP1B1 induced with benzo[a]pyrene
Text: 510 is a control compound that lacks a coordinating group. […] All other conditions are following CYP1B1 induction with benzo[a]pyrene. Spheroid shown in inset.

[2] = target: T1, CYP1B1 (Homo sapiens, UniProt Q16678); assay: EROD assay in inducible CYP1B1 cell line; format: cell-based
T1 construct: expressed in transfected cells
T1 sequence (Q16678 1-543): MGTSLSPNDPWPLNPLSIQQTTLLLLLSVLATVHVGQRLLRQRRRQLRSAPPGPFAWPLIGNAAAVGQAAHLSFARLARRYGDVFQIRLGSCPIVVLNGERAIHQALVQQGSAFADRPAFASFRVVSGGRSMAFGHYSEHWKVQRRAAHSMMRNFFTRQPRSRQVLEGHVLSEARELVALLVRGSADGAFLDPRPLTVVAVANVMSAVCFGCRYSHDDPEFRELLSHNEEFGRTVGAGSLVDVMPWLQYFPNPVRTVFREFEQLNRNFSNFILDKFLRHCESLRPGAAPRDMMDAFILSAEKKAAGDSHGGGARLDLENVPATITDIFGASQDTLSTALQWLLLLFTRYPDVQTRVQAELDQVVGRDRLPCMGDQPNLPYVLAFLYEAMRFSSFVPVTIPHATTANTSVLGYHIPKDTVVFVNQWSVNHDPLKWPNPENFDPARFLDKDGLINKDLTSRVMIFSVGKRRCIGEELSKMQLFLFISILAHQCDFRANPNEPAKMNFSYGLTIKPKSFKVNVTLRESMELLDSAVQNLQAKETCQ
Method: (§1) The activity of the inhibitors was assessed in a novel cell based assay generated for the purpose of this project. Enzymatic turnover of CYP1B1 was measured using the ethoxy-resorufin-O-deethylase (EROD) assay with the fluorescent substrate, resorufin ethyl ether. Cell lines were generated where the gene for CYP1B1 alone or CYP1B1 and cytochrome P450 reductase (CPR) were both under the control of an inducible promoter. A cell line was generated for counter screening where the gene for CYP1A1 was used. CYP1A1 is the closest family member to CYP1B1.

[3] = target: T2, CYP1A1 (Homo sapiens, UniProt P04798); assay: EROD assay in CYP1A1 counter-screen cell line; format: cell-based
T2 construct: expressed in transfected cells
T2 sequence (P04798 1-512): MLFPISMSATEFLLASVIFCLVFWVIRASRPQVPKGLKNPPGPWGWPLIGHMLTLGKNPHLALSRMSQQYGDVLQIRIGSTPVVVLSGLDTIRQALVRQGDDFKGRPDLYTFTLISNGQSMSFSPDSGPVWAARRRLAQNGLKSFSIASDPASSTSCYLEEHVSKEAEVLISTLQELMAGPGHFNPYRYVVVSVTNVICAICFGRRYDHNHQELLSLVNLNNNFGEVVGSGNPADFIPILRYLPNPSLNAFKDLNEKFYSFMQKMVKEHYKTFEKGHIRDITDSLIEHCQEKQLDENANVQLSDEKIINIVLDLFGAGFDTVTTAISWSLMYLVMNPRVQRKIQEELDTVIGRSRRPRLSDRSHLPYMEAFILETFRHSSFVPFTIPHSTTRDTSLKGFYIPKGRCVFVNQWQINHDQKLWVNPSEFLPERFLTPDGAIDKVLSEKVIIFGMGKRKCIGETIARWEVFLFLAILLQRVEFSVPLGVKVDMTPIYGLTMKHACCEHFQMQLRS
Method: as §1

[4] = target: T3, pooled human liver microsomes (pHLMs) (Homo sapiens, UniProt P05177); assay: EROD counterscreen in pooled human liver microsomes; format: biochemical; conditions: human, microsomes
T3 sequence (P05177 2-516): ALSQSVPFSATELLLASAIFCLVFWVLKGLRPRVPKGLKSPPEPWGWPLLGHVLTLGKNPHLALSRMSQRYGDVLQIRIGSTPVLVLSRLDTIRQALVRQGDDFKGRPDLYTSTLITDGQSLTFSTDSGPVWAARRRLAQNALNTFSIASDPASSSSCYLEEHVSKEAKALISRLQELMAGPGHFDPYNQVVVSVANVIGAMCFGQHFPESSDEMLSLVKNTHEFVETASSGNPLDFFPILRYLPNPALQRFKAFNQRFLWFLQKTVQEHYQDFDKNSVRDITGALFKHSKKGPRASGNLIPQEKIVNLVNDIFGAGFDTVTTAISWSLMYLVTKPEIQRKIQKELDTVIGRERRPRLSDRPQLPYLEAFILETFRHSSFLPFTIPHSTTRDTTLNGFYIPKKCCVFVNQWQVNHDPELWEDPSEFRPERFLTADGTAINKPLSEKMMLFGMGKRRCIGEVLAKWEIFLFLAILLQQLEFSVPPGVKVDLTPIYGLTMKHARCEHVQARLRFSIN
Text: Human liver microsomes were used as a counterscreen to experimentally determine the magnitude of inhibitor selectivity.

[5] = target: T1, CYP1B1; assay: CYP1B1 degradation on binding (FIG. 2C); format: cell-based; conditions: 0.1 μM
Text: (§2) FIG. 2A includes a dose response of 547 in EROD assay in CYP1B1 cell line (blue) vs. 1A1 cell line (black). […] 510 is a control compound that lacks a coordinating group. […] All other conditions are following CYP1B1 induction with benzo[a]pyrene. Spheroid shown in inset.

[6] = target: T1, CYP1B1; assay: Wash out experiment (FIG. 2B); format: cell-based
Text: as §2

[7] = Cytotoxicity, resazurin, 72 hours after compound addition; format: cell-based; conditions: human, HEK cells; Table 1; 72 hours, resazurin; read-out: Cytotoxicity IC50
Method: Cytotoxicity was assessed at 72 hours after compound addition using resazurin. The compounds that function as selective 1B1 inhibitors had no effect on cell health. This is an essential feature for any chemopreventative agent or molecules intended to block the detrimental action of an enzyme.

N#CCOc1ccc(-c2nc(OCC#N)c3ccccc3n2)cc1 [GL547]
increase in cell death [1]: 75%
IC50 ([2]; Table 1, read-out: CYP1B1 IC50): 24 pM
IC50 ([2]; Table 3, read-out: IC50 1B1): < 250 pM
activity of CYP1A1 over 24 h ([3]; 1 μM, 24 h, FIG. 2D): no loss in activity
IC50 ([3]; Table 1, read-out: CYP1A1 IC50): 1.4 µM
IC50 ([3]; Table 3, read-out: IC50 1A1): 3.73 µM and 2.69 µM
IC50 ([4]; Table 1, read-out: hLM IC50): 4 µM
IC50 ([4]; Table 3, read-out: IC50 pHLM): 3 µM
effect of binding on CYP1B1 protein [5]: causes degradation of CYP1B1
time CYP activity is suppressed after wash out [6]: > 10 h
IC50 at 72 h [7]: > 10 µM
